Source: patent US20200345633A1, “Pharmaceutical Compositions for Controlling and/or Reducing the Progression of Myopia” (Brien Holden Vision Institute Limited, priority 2017, published 2020)
Like-named read-outs stand apart in the source and are kept apart here.

Tests used:
primate eyes = test: Choroidal thickness via Ocular Coherence Tomography (OCT) after eye drops in primate eyes; conditions: atropine at 0.1 wt. % concentration; data not shown
myopia [1] = conditions: cited from earlier work
human eye = conditions: concentration of 1 wt. %; cited from earlier work
accommodation = conditions: systemic intake; cited from earlier work
myopia [2] = conditions: oral administration, young myopic children, one year; cited from earlier work

## CN1[C@@H]2CC[C@H]1C[C@@H](OC(=O)C(CO)c1ccccc1)C2 (stereo partly drawn) [atropine]
Primate eyes
  adverse effects: adverse effects result
Myopia [1]; 0.01 wt. %
  effect on accommodative amplitude: not significant
  pupil size increase: minimal
Myopia [1]; concentrations of 1% and 0.5%
  adverse effects: significant short term adverse effects
Myopia [1]; initially used in concentrations of approximately 1%
  progression of myopia: slow the progression of myopia
Myopia [1]; low dose, 0.01 wt %
  axial length elongation: not effective in reducing axial length elongation
Myopia [1]; low-concentration topical, 0.01 wt. %
  side effects: not induce side effects

## Cn1c(=O)c2c(ncn2C)n(C)c1=O [caffeine]
Human eye
  safety of topical use: safely been used topically
accommodation
  accommodation: enhances accommodation

## Cn1cnc2[nH]c(=O)[nH]c(=O)c21 [7-methylxanthine]
Myopia [2]
  axial eye growth: retards axial eye growth
  progression of myopia: slowing of the progression of myopia
  side effects: without significant side effects
